The source of these data is article PMC8861568, “Identification of (Z)-2-benzylidene-dihydroimidazothiazolone derivatives as tyrosinase inhibitors: Anti-melanogenic effects and in silico studies” (Computational and Structural Biotechnology Journal, 2022).

“Also recorded” adds a separate entry of the source.

The subject of series [1] is B16F10 cells. Nature of the series: Cell viability, EZ-cytox assay. Type of series: cell-based, murine. The settings on record: up to 20 μM, 48 h. The protocol:
Before examining inhibitory effects of compounds 1b and 1f on cellular tyrosinase activity, we examined their cytotoxic effects on B16F10 murine cells using the EZ-cytox assay (Daeil Lab Service, Seoul, Korea). After B16F10 cells had been cultured for 24 h, cells were treated with different concentrations (0, 1, 2, 5, 10 or 20 μM) of 1b or 1f for 48 h in a humidified atmosphere. Optical densities (ODs) were measured at 450 nm using a microplate reader.
Cell viability assays were performed at 37 °C as previously described with minor modification using the EZ-cytox assay. In brief, B16F10 melanoma cells were seeded in 96-well plates at a density of 1 × 10^4 cells/well and incubated in a humidified 5% CO2 atmosphere for 24 h at 37 °C. Cells were then treated with compounds 1b or 1f at 0, 1, 2, 5, 10, or 20 µM/well for 48 h. EZ-cytox solution (10 µL) (Daeil Lab Service, Seoul, Korea) was then added to each well and incubated for 1 h at 37 °C. Cell viabilities were assessed by measuring absorbances at 450 nm using a microplate reader (VersaMax^TM, Molecular Devices, Sunnyvale, CA, USA). All experiments were independently conducted three times.

Series [2] has as its target T1, tyrosinase in B16F10 cells (Mus musculus, UniProt P11344).
T1 construct: endogenous in cells; host or cells: B16F10 murine melanoma cells (ATCC), stimulated with alpha-MSH and IBMX
T1 sequence (P11344 19-533): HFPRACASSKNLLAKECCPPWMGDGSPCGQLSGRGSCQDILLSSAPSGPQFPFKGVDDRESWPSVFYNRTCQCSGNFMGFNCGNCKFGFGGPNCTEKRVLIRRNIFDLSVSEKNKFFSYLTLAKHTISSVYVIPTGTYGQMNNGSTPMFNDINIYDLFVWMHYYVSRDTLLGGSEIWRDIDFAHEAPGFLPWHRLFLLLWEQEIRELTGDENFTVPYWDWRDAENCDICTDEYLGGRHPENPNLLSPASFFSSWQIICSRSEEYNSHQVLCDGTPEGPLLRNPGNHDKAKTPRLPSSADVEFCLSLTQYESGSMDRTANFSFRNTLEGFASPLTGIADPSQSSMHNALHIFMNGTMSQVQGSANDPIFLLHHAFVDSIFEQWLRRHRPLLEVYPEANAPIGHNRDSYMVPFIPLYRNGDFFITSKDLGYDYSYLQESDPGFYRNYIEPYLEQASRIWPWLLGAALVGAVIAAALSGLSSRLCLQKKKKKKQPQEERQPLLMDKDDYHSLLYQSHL
Nature of the series: Cellular tyrosinase inhibition assay in B16F10 cells. Conditions: 48 h; for cellular tyrosinase activity: 5, 10, 20 μM, α-MSH 1 μM + IBMX 200 μM. Type of series: cell-based, murine. As for the experimental part:
B16F10 cells co-stimulated with α -melanocyte-stimulating hormone (α -MSH) and 3-isobutyl-1-methylxanthine (IBMX) were used to investigate the inhibitory effects of compounds 1b and 1f on mammal cellular tyrosinase. Kojic acid was used as the positive control. […] Cellular tyrosinase activities were determined by measuring optical densities at 492 nm.
Cellular tyrosinase inhibition assays were conducted as previously described with minor modification. B16F10 cells were seeded at a density of 1 × 10^5 cells/well in 6-well plates and incubated in a humidified 5% CO2 atmosphere for 24 h at 37 °C. […] Cells were then washed twice with PBS, lysed by adding 45 mM of phosphate buffer (100 µL) containing 1% Triton X-100 (5 µL) and 1% PMSF (5 µL, phenylmethylsulfonyl fluoride) and frozen at −80 °C for 1 h. Lysates were clarified by centrifugation at 12,000 rpm for 30 min at 4 °C. Cell lysate supernatants (80 µL/well) in a 96-well plate were then mixed with 20 µL of L-DOPA (2 mg/mL in distilled water) and incubated for 30 min at 37 °C. Absorbances of reaction mixtures at 492 nm were recorded using a microplate reader (VersaMax^TM, Molecular Devices, Sunnyvale, CA, USA). Kojic acid was used as the positive control. Protein concentrations were determined using Bicinchoninic Acid (BCA) protein assay reagent using Bovine Serum Albumin (BSA) as the standard (Thermo Scientific, Rockford, IL, USA). All experiments were independently conducted three times.

On to `COc1ccc(/C=c2\sc3n(c2=O)CCN=3)cc1O` [Compound 1f, (Z)-2-(3-Hydroxy-4-methoxybenzylidene)-5,6-dihydroimidazo[2,1-b]thiazol-3(2H)-one], for which the “cytotoxic effect on B16F10 cells” value in series [1] is “without perceptible cytotoxicity; also recorded: Neither 1b nor 1f had a significant cytotoxic effect”. Besides, in series [2], the cellular tyrosinase activity entry was “significantly and concentration-dependently reduced this increase in tyrosinase activity”.

For the molecule `O=c1/c(=C/c2ccc(O)cc2O)sc2n1CCN=2` [Compound 1b, (Z)-2-(2,4-Dihydroxybenzylidene)-5,6-dihydroimidazo[2,1-b]thiazol-3(2H)-one], in series [1], the “cytotoxic effect on B16F10 cells” value is given as “without perceptible cytotoxicity; also recorded: Neither 1b nor 1f had a significant cytotoxic effect”. Further, in series [2] (1b at 10 μM, α-MSH + IBMX), the “cellular tyrosinase inhibition compared with kojic acid” value is given as “to the same extent as compound 1f or kojic acid at 20 μM”. The cellular tyrosinase activity entry in series [2] is “significantly and concentration-dependently reduced this increase in tyrosinase activity”.
